# According to patent US11214567B2, “Small molecule inhibitors of MYC and uses thereof” (The Regents of the University of Michigan, priority 2017, dated 2022):
# Entries after “also recorded” stand apart in the source; their conditions may differ.
# Legend:
# tumor = assay: Tumor size, body weight and gross toxicity in treated mice; assay type: in vivo
# Text: Error bars indicate Mean±SEM. and *p<0.05.
# [1] = test system: five human cancer cell lines (OVCAR-8, NCI/ADR-RES, SKOV3, MIA PaCa-2, Pac-1); assay: MTT assay, panel of five human cancer cell lines; assay type: cell-based; conditions: span over the five cell lines, read-out: IC50 against five cancer cell lines
# Protocol: (§1) The evaluation of cytotoxicity was based on the reduction of MTT dye by viable cells to give purple formazan products, which can be measured spectrophotometrically at 540 nm. One hundred eighty microliters of cancer cells were seeded into 96-well plates at 3,500-4,000 cells/well and incubated at 37° C. overnight before the indicated treatments. After 72 h, 20 μl of MTT solution (3 mg/ml) was added and incubated again for 3 h. After removal of media and solubilization of formazan crystals in 150 μL of DMSO, the absorbance was measured at 570 nm. Percentage of cell growth inhibition was expressed as 1-[(A−B)/(C−B)]×100% (A, B and C were the absorbance values from experimental, blank and control cells, respectively).
# (§2) KJA derivatives were tested by the MTT assay against five human cancer cell lines including ovarian cancer cell lines (OVCAR-8, NCI/ADR-RES and SKOV3) and pancreatic cancer cell lines (MIA PaCa-2 and Pac-1). […] It is important to note that the NCI/ADR-RES cell line shares a large number of karyotypic abnormalities with OVCAR-8 but expresses high levels of MDR1 (multidrug resistance protein 1)/P-glycoprotein (see, e.g., Xu, S.; et al., Proceedings of the National Academy of Sciences 2012, 109, 16348-16353), resulting in resistance to multiple anticancer drugs in clinical use, including paclitaxel and doxorubicin.
# NCI/ADR-RES cells = assay: Colony formation assay; assay type: cell-based, human; conditions: 24 h treatment; low concentration
# Protocol: Colony formation assay. Colony formation assay is an in vitro cell survival assay based on the ability of a single cell to grow into a colony. This technique was also performed to confirm the activity. Briefly, cells were plated in 96-well plates at a density of 300 cells/well and allowed to attach overnight. The next day, the corresponding compounds were added and allowed to incubate for 24 h. After exposure, cells were changed the new media and cultured until colonies were formed (7-10 days). Cells were subsequently washed and stained with a solution of crystal violet for 30 min. After staining, cells were thoroughly washed with water. Colonies were imaged on the inverted fluorescence microscope and were counted using ImageJ software.
# SKOV3 = assay: MTT assay (cytotoxicity), SKOV3; assay type: cell-based; conditions: Homo sapiens, SK-OV-3, 72 h, drug concentration causing a 50% decrease in cell population
# Protocol: as §1, §2
# NCI/ADR-RES cell line = assay: Bru-seq, changes in transcription; assay type: cell-based, human
# Text: Furthermore, to better understand the potential mechanism of KJA03, we performed Bru-seq to examine the global changes in transcription in NCI/ADR-RES cells.
# MIA PaCa-2 = assay: MTT assay (cytotoxicity), MIA PaCa-2; assay type: cell-based; conditions: Homo sapiens, 72 h, drug concentration causing a 50% decrease in cell population
# Protocol: as §1, §2
# Panc1 = assay: MTT assay (cytotoxicity), Panc1; assay type: cell-based; conditions: Homo sapiens, PANC-1, 72 h, drug concentration causing a 50% decrease in cell population
# Protocol: as §1, §2
# NCI/ADR-RES = assay: MTT assay (cytotoxicity), NCI/ADR-RES; assay type: cell-based, human
# Protocol: as §1, §2
# TXNIP = assay: Western blotting of TXNIP protein levels; assay type: cell-based, human; conditions: NCI/ADR-RES; Western blot
# OVCAR8 = assay: MTT assay (cytotoxicity), OVCAR8; assay type: cell-based; conditions: Homo sapiens, OVCAR-8, 72 h, drug concentration causing a 50% decrease in cell population
# Protocol: as §1, §2
# GLIPR1 = assay: Western blotting of GLIPR1 protein levels; assay type: cell-based, human; conditions: NCI/ADR-RES; Western blot
smiles,measurement,setting,value
"Cc1ccc(-c2noc(-c3ccccc3-n3c(-c4ccc(C)cc4)noc3=O)n2)cc1 [KJA03, 3-(P-tolyl)-4-(2-(3-(p-tolyl)-1,2,4-oxadiazol-5-yl)phenyl)-1,2,4-oxadiazol-5(4H)-one]",tumor sizes,"tumor; mice, 10 mg/kg, *p<0.05",tumor sizes were reduced
same,"gross toxicity such as weakness, weight loss or lethargy","tumor; mouse, in vivo",no symptoms of gross toxicity
same,IC50,[1],130 to 310 nM
same,colony formation in NCI/ADR-RES,NCI/ADR-RES cells,significantly inhibited colony formation
same,IC50,SKOV3,310 ± 160 nM
same,"expression of LAMC2, TAGLN, CSRP1, SLC4A4, LAMB3, and LPP genes",NCI/ADR-RES cell line,significantly increase
same,Fold-Change ACTC1,"NCI/ADR-RES cell line; NCI/ADR-RES, 0.4 uM, 4 hours",2.238 fold
same,Fold-Change APOBEC3,"NCI/ADR-RES cell line; NCI/ADR-RES, 0.4 uM, 4 hours",0.309 fold
same,Fold-Change ARMCX1,"NCI/ADR-RES cell line; NCI/ADR-RES, 0.4 uM, 4 hours",0.417 fold
same,Fold-Change ATP5I,"NCI/ADR-RES cell line; NCI/ADR-RES, 0.4 uM, 4 hours",0.496 fold
same,Fold-Change AURKAIP1,"NCI/ADR-RES cell line; NCI/ADR-RES, 0.4 uM, 4 hours",0.413 fold
same,Fold-Change BHLHE40,"NCI/ADR-RES cell line; NCI/ADR-RES, 0.4 uM, 4 hours",2.683 fold
same,Fold-Change C19orf33,"NCI/ADR-RES cell line; NCI/ADR-RES, 0.4 uM, 4 hours",0.378 fold
same,Fold-Change CNO,"NCI/ADR-RES cell line; NCI/ADR-RES, 0.4 uM, 4 hours",0.395 fold
same,Fold-Change CSRP1,"NCI/ADR-RES cell line; NCI/ADR-RES, 0.4 uM, 4 hours",2.335 fold
same,Fold-Change EGR1,"NCI/ADR-RES cell line; NCI/ADR-RES, 0.4 uM, 4 hours",0.198 fold
same,Fold-Change EXOSC4,"NCI/ADR-RES cell line; NCI/ADR-RES, 0.4 uM, 4 hours",0.493 fold
same,Fold-Change FJX1,"NCI/ADR-RES cell line; NCI/ADR-RES, 0.4 uM, 4 hours",0.469 fold
same,Fold-Change GALNT4,"NCI/ADR-RES cell line; NCI/ADR-RES, 0.4 uM, 4 hours",0.356 fold
same,Fold-Change GLIPR1,"NCI/ADR-RES cell line; NCI/ADR-RES, 0.4 uM, 4 hours",2.574 fold
same,Fold-Change HIST1H2A1,"NCI/ADR-RES cell line; NCI/ADR-RES, 0.4 uM, 4 hours",0.483 fold
same,Fold-Change HIST1H2AB,"NCI/ADR-RES cell line; NCI/ADR-RES, 0.4 uM, 4 hours",0.362 fold
same,Fold-Change HIST1H2AE,"NCI/ADR-RES cell line; NCI/ADR-RES, 0.4 uM, 4 hours",0.471 fold
same,Fold-Change HIST1H2AG,"NCI/ADR-RES cell line; NCI/ADR-RES, 0.4 uM, 4 hours",0.45 fold
same,Fold-Change HIST1H2BL,"NCI/ADR-RES cell line; NCI/ADR-RES, 0.4 uM, 4 hours",0.441 fold
same,Fold-Change HIST1H2BM,"NCI/ADR-RES cell line; NCI/ADR-RES, 0.4 uM, 4 hours",0.193 fold
same,Fold-Change HIST1H2BN,"NCI/ADR-RES cell line; NCI/ADR-RES, 0.4 uM, 4 hours",0.378 fold
same,Fold-Change HIST1H3B,"NCI/ADR-RES cell line; NCI/ADR-RES, 0.4 uM, 4 hours",0.432 fold
same,Fold-Change HIST1H3F,"NCI/ADR-RES cell line; NCI/ADR-RES, 0.4 uM, 4 hours",0.322 fold
same,Fold-Change HIST1H3G,"NCI/ADR-RES cell line; NCI/ADR-RES, 0.4 uM, 4 hours",0.496 fold
same,Fold-Change HIST1H3H,"NCI/ADR-RES cell line; NCI/ADR-RES, 0.4 uM, 4 hours",0.136 fold
same,Fold-Change HIST1H4C,"NCI/ADR-RES cell line; NCI/ADR-RES, 0.4 uM, 4 hours",0.338 fold
same,Fold-Change HIST1H4H,"NCI/ADR-RES cell line; NCI/ADR-RES, 0.4 uM, 4 hours",0.324 fold
same,Fold-Change HIST1H4L,"NCI/ADR-RES cell line; NCI/ADR-RES, 0.4 uM, 4 hours",0.416 fold
same,Fold-Change HIST2H2AC,"NCI/ADR-RES cell line; NCI/ADR-RES, 0.4 uM, 4 hours",0.29 fold
same,Fold-Change HIST3H2BB,"NCI/ADR-RES cell line; NCI/ADR-RES, 0.4 uM, 4 hours",0.446 fold
same,Fold-Change HIST4H4,"NCI/ADR-RES cell line; NCI/ADR-RES, 0.4 uM, 4 hours",0.483 fold
same,Fold-Change HOXA1,"NCI/ADR-RES cell line; NCI/ADR-RES, 0.4 uM, 4 hours",0.491 fold
same,Fold-Change HOXC,"NCI/ADR-RES cell line; NCI/ADR-RES, 0.4 uM, 4 hours",0.477 fold
same,Fold-Change HOXC4,"NCI/ADR-RES cell line; NCI/ADR-RES, 0.4 uM, 4 hours",0.4 fold
same,Fold-Change HSD17B10,"NCI/ADR-RES cell line; NCI/ADR-RES, 0.4 uM, 4 hours",0.415 fold
same,Fold-Change ILE,"NCI/ADR-RES cell line; NCI/ADR-RES, 0.4 uM, 4 hours",2.485 fold
same,Fold-Change INGX,"NCI/ADR-RES cell line; NCI/ADR-RES, 0.4 uM, 4 hours",3.089 fold
same,Fold-Change LAMB3,"NCI/ADR-RES cell line; NCI/ADR-RES, 0.4 uM, 4 hours",2.089 fold
same,Fold-Change LAMC2,"NCI/ADR-RES cell line; NCI/ADR-RES, 0.4 uM, 4 hours",3.217 fold
same,Fold-Change LINC00312,"NCI/ADR-RES cell line; NCI/ADR-RES, 0.4 uM, 4 hours",2.165 fold
same,Fold-Change LINC00493,"NCI/ADR-RES cell line; NCI/ADR-RES, 0.4 uM, 4 hours",0.452 fold
same,Fold-Change LOC100630918,"NCI/ADR-RES cell line; NCI/ADR-RES, 0.4 uM, 4 hours",0.494 fold
same,Fold-Change LPP,"NCI/ADR-RES cell line; NCI/ADR-RES, 0.4 uM, 4 hours",2.032 fold
same,Fold-Change LSMD1,"NCI/ADR-RES cell line; NCI/ADR-RES, 0.4 uM, 4 hours",2.261 fold
same,Fold-Change MRPL34,"NCI/ADR-RES cell line; NCI/ADR-RES, 0.4 uM, 4 hours",0.416 fold
same,Fold-Change MRPL41,"NCI/ADR-RES cell line; NCI/ADR-RES, 0.4 uM, 4 hours",0.496 fold
same,Fold-Change MRPS26,"NCI/ADR-RES cell line; NCI/ADR-RES, 0.4 uM, 4 hours",0.432 fold
same,Fold-Change MYADM,"NCI/ADR-RES cell line; NCI/ADR-RES, 0.4 uM, 4 hours",2.114 fold
same,Fold-Change PA2G4P4,"NCI/ADR-RES cell line; NCI/ADR-RES, 0.4 uM, 4 hours",0.463 fold
same,Fold-Change RPL23AP32,"NCI/ADR-RES cell line; NCI/ADR-RES, 0.4 uM, 4 hours",2.141 fold
same,Fold-Change RPS19BP1,"NCI/ADR-RES cell line; NCI/ADR-RES, 0.4 uM, 4 hours",0.49 fold
same,Fold-Change SCARNA2,"NCI/ADR-RES cell line; NCI/ADR-RES, 0.4 uM, 4 hours",0.401 fold
same,Fold-Change SCARNA10,"NCI/ADR-RES cell line; NCI/ADR-RES, 0.4 uM, 4 hours",0.487 fold
same,Fold-Change SCARNA17,"NCI/ADR-RES cell line; NCI/ADR-RES, 0.4 uM, 4 hours",0.496 fold
same,Fold-Change SDPR,"NCI/ADR-RES cell line; NCI/ADR-RES, 0.4 uM, 4 hours",0.497 fold
same,Fold-Change SFTA1P,"NCI/ADR-RES cell line; NCI/ADR-RES, 0.4 uM, 4 hours",0.387 fold
same,Fold-Change SLC4A4,"NCI/ADR-RES cell line; NCI/ADR-RES, 0.4 uM, 4 hours",2.18 fold
same,Fold-Change SNRNP25,"NCI/ADR-RES cell line; NCI/ADR-RES, 0.4 uM, 4 hours",0.463 fold
same,Fold-Change SSSCA1,"NCI/ADR-RES cell line; NCI/ADR-RES, 0.4 uM, 4 hours",0.386 fold
same,Fold-Change TAGLN,"NCI/ADR-RES cell line; NCI/ADR-RES, 0.4 uM, 4 hours",2.648 fold
same,Fold-Change TCEAL1,"NCI/ADR-RES cell line; NCI/ADR-RES, 0.4 uM, 4 hours",0.455 fold
same,Fold-Change TMEM133,"NCI/ADR-RES cell line; NCI/ADR-RES, 0.4 uM, 4 hours",2.846 fold
same,Fold-Change TNFAIP3,"NCI/ADR-RES cell line; NCI/ADR-RES, 0.4 uM, 4 hours",2.192 fold
same,Fold-Change TPBG,"NCI/ADR-RES cell line; NCI/ADR-RES, 0.4 uM, 4 hours",0.374 fold
same,Fold-Change TUBB2B,"NCI/ADR-RES cell line; NCI/ADR-RES, 0.4 uM, 4 hours",0.461 fold
same,Fold-Change TWIST1,"NCI/ADR-RES cell line; NCI/ADR-RES, 0.4 uM, 4 hours",0.319 fold
same,Fold-Change TXNIP,"NCI/ADR-RES cell line; NCI/ADR-RES, 0.4 uM, 4 hours",0.281 fold
same,IC50,MIA PaCa-2,130 nM
same,IC50,Panc1,170 nM
same,IC50,"NCI/ADR-RES; Homo sapiens, NCI/ADR-RES, MTT, 72 h, drug concentration causing a 50% decrease in cell population",200 ± 60 nM
same,growth of NCI/ADR-RES,NCI/ADR-RES; MTT assay after 72 h treatment,inhibited growth
same,TXNIP protein levels,TXNIP,downregulated; also recorded: down-regulated dose-dependently
same,IC50,OVCAR8,140 ± 50 nM
same,GLIPR1 protein levels,GLIPR1,gradually upregulated; also recorded: up-regulated
